# Like-named read-outs stand apart in the source and are kept apart here.
# What was measured:
# P388 cells [1] = test: Cell cycle progression of P388, flow cytometer; assay type: cell-based, murine; settings: 1×10^−6 M, 8-hour incubation
# Protocol: The effect of phenylahistin on the cell cycle progression of P388 cells was also investigated using a flow cytometer, as described in Krishan, A., J. Cell Biol. (1975) 66, 188-193. P388 cells in the log growth phase were seeded into flasks and cultured for 14 hours, and then various concentrations of phenylahistin were added to each flask. After an 8-hour incubation, the cells were harvested and fixed with 50% MeOH at −20° C. overnight. The cells were washed with 30% MeOH and then with 10 mM PBS, and treated with 50 :g/ml propidium iodide at 4° C. for 2 hours. DNA histograms were obtained using a flow cytometer (Cyto ACE-300:JASCO).
# [2] = tested on: microtubules in A549 cells; test: Immunofluorescence staining of microtubules; assay type: cell-based, human; settings: 6 hours incubation
# Protocol: Immunocytochemical staining was performed using the method described by Yahara, I. et al., Cell (1978) 15, 251-259. A549 cells were cultured on glass coverslips and incubated with the test drug for 6 hours. The cells were then fixed with 3.7% formaldehyde for 30 min, permeabilized with 0.2% Triton X-100 for 5 min, and incubated with a mouse monoclonal antibody against α-tubulin (Calbiochem®, Oncogene Research Products, Cambridge, Mass.), followed by incubation with fluorescein isothiocyanate-conjugated goat anti-mouse IgG from Cosmo Bio Co., (Tokyo, Japan), and the cells were examined under an immunofluorescent microscope.
# A549 cells = test: Mitotic index; assay type: cell-based, human
# Protocol: Exponentially growing A549 cells were seeded into 96-well tissue culture plates (2×10^3 cells/100:1/well) and cultured for 16 hours. (−)-PLH or CLC was then added to each well at various concentrations, and the plates were incubated for an additional 24 hours. The number of cells in mitosis (round cells) and total cells in eight randomly selected fields were counted under a phase-contrast microscope. In a series of preliminary studies, it was confirmed that the round cells in this condition were cells in mitosis by using flow cytometry and Hoechst 33258 staining. The mitotic index represented the percentage of round cells among the total number of cells in the eight selected fields.
# P388 cells [3] = test: P388 proliferation, Alamar Blue assay; assay type: cell-based, murine; settings: for IC50: Mus musculus
# A549 (lung) = test: Antiproliferative activity, MTT assay (Table 7); assay type: cell-based; settings: Homo sapiens, optical purity over 99.8%
# Protocol: (§1) In order to examine detailed biological activity, especially antitumor activity of both (+)- and (−)-phenylahistin, resolution of (+)- and (−)-phenylahistin using chiral HPLC was conducted. By repeating chiral separation twice or three times, each enantiomer with an optical purity over 99.8% was obtained, and each enantiomer was recrystallizes from ethanol-hexane mixture.
# (§2) Antitumor activity of (+)- and (−)-phenylahistin was examined against seven human cancer cell lines including A431, WiDr, TE-671, Hela, MCF7, A-549 and K562 cells.
# Hela (ovary) = test: Antiproliferative activity, MTT assay (Table 7); assay type: cell-based; settings: Homo sapiens, optical purity over 99.8%
# Protocol: as §1, §2
# [4] = tested on: phosphocellulose-purified tubulin; test: Polymerization of purified tubulin (turbidity); assay type: biochemical, bovine
# Protocol: Microtubule protein was prepared from bovine brain tissue by two cycles of assembly and disassembly according to the method of Tiwari, S. C. et al. Anal. Biochem, (1993), 215, 96-103. Tubulin was purified from microtubule protein by phosphocellulose chromatography see Algaier, J. et al. Biochim. Biophys. Acta, (1988), 954, 235-43, and tubulin purity was evaluated by polyacrylamide gel electrophoresis, as in Laemmli, U.K., Nature, (1970), […], 680-85. […] Protein concentrations were determined using the Coomassie® Protein Assay Reagent from Pierce (Rockford, Ill.).
# Polymerization of microtubule protein was monitored by an increase in turbidity at 37° C. in microtubule assembly buffer containing 100 mM MES, 0.5 mM MgCl2, 1 mM EGTA and 1 mM GTP. See Johnson, K. A. et al., J. Mol. Biol., (1977), 117, 1-31. Polymerization of purified tubulin was measured using the same method except the microtubule assembly buffer contained 4 M glycerol. See Lee, J. C. et al., Biochemistry, (1975), 14, 5183-87. Microtubule protein and tubulin polymerization was initiated by a temperature shift from 0° C. to 37° C. and turbidity was measured on a DU-20 thermocontrolled spectrophotometer from Beckman (Fullerton, Calif.) at 360 nm. Drugs were dissolved in dimethyl sulfoxide (DMSO), which was used in all experiments at a final concentration of 2% (v/v).
# A. fumigatus isolate #2 = test: Antifungal susceptibility testing, broth dilution (NCCLS M38-A); assay type: cell-based; settings: Aspergillus fumigatus, 80% reduction in turbidity
# Protocol: (§3) Antifungal susceptibility testing was accomplished according to the methods outlined in the National Committee for Clinical Laboratory Standards, M38-A “Reference Method for Broth Dilution Antifungal Susceptibility Testing of Conidium-Forming Filamentous Fungi; Approved Standard.” This includes testing in RPMI-1640 with glutamine and without bicarbonate, an inoculum size of 0.4-5×10^4, and incubation at 30 or 35° C. for 48 hours. […] Drug concentrations were 0.03-16 μg/ml for the investigational compounds, 0.015-8 μg/ml for itraconazole and griseofulvin.
# (§4) The minimum lethal concentration (MLC) was determined by plating […] from the MIC concentration and each concentration above the MIC. […] When a MIC was obtained, a minimum fungicidal concentration (MFC) was determined to assess the fungistatic/fungicidal nature of the compound. […] The compound is scored as fungistatic if the cells are able to resume growth and fungicidal if no regrowth is possible because the compound had killed the organisms.
# A. fumigatus isolate #1 = test: as above; assay type: cell-based; settings: Aspergillus fumigatus, 80% reduction in turbidity
# Protocol: as §3, §4
# Microtubule protein = test: Electron microscopy of microtubule protein polymerization; assay type: biochemical, bovine; settings: 100 μM, 37° C. for 20 min
# Protocol: Microtubule protein (1.5 mg/ml) was polymerized at 37° C. for 20 min in the presence of 100 μM (−)-PLH or vehicle (DMSO). A portion of each sample was diluted 5-fold with 1% glutaraldehyde in the microtubule assembly buffer. Samples were then placed on formvar- and carbon-coated grids, stained with 2% uranyl acetate, and examined using a JEOLJEM-1200 EXII electron microscope JEOL (Tokyo, Japan).
smiles,measurement,setting,value
C=CC(C)(C)c1[nH]cnc1/C=C1\NC(=O)[C@H](Cc2ccccc2)NC1=O [(−)-phenylahistin],cell cycle inhibitory activity (G2/M),P388 cells [1],exhibited cell cycle inhibitory activity
same,cell cycle inhibitory activity (G2/M),P388 cells [1]; listed as (−)-PLH,completely inhibits the cell cycle progression
same,microtubule structure (anti α-tubulin staining),[2],disappearance of the microtubule network
same,mitotic index,A549 cells; 24 hours,increased
same,reversibility of the anti-mitotic effect,A549 cells; after washing and replacement with fresh medium,reversible
same,times more active than (+)-phenylahistin in anti-proliferative assays,P388 cells [3],50 times
same,IC50,"P388 cells [3]; P388, read-out: IC50 P388 proliferation",210 nM
same,IC50,"P388 cells [3]; P388, read-out: IC50 for P388 Proliferation",210 nM
same,"times less active than colchicine, anti-proliferative activity",P388 cells [3]; P388,about 10 times
same,IC50,A549 (lung),300 nM
same,IC50,Hela (ovary),200 nM
same,inhibition of tubulin polymerization compared with CLC,[4],as effective as CLC
same,MIC,A. fumigatus isolate #2,> 16 µg/mL
same,MIC,A. fumigatus isolate #1,> 16 µg/mL
same,microtubule structures by electron microscopy,Microtubule protein,did not contain such structures

# — US20040102454A1, “Phenylahistin and the phenylahistin analogs, a new class of anti-tumor compounds” (priority 1998, published 2004)
